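Compound exposure: 48 hours, 5 concentrations, 96-well plates. GI50: concentration for 50% inhibition of growth. TGI: total growth inhibition.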
Legend:
Assay in all cases: DTP human tumour cell line panel, 48 h
[1] = test system: 786-0 renal
[2] = test system: A498 renal
[3] = test system: A549 NSCLC
[4] = test system: ACHN renal
[5] = test system: BT-549 breast
[6] = test system: CAKI-1 renal
[7] = test system: CCRF-CEM leukemia
[8] = test system: COLO 205 colon
[9] = test system: DU-145 prostate
[10] = test system: EKVX NSCLC
[11] = test system: HCC-2998 colon
[12] = test system: HCT-116 colon
[13] = test system: HCT-15 colon
[14] = test system: HL-60(TB) leukemia
[15] = test system: HOP-62 NSCLC
[16] = test system: HOP-92 NSCLC
[17] = test system: HS 578T breast
[18] = test system: HT29 colon
[19] = test system: IGROV1 ovarian
[20] = test system: K-562 leukemia
[21] = test system: KM12 colon
[22] = test system: LOX IMVI melanoma
[23] = test system: M14 melanoma
[24] = test system: MCF7 breast
[25] = test system: MDA-MB-231 breast
[26] = test system: MDA-MB-435
[27] = test system: MOLT-4 leukemia
[28] = test system: NCI-H226 lung
[29] = test system: NCI-H23 lung

Question: With `CC1(C)CCC(c2ccc(Cl)cc2)=C(CN2CCN(c3ccc(C(=O)NS(=O)(=O)c4ccc(N[C@H](CCN5CCOCC5)CSc5ccccc5)c(S(=O)(=O)C(F)(F)F)c4)cc3)CC2)C1` as the molecule, how does the GI50 [1] read?
Answer: 1880 nM

Question: And the TGI [1]?
Answer: 3400 nM

Question: And the GI50 [2]?
Answer: 19.1 nM

Question: And the TGI [2]?
Answer: 115 nM

Question: What about the GI50 [3] of the same molecule?
Answer: 1730 nM

Question: What about the TGI [3] of the same molecule?
Answer: 3580 nM

Question: And the GI50 [4]?
Answer: 1720 nM

Question: And the TGI [4]?
Answer: 3140 nM

Question: What about the GI50 [5] of the same molecule?
Answer: 1960 nM

Question: And the TGI [5]?
Answer: 3600 nM

Question: What about the GI50 [6] of the same molecule?
Answer: 1720 nM

Question: And the TGI [6]?
Answer: 4090 nM

Question: And the GI50 [7]?
Answer: 61.8 nM

Question: What about the TGI [7] of the same molecule?
Answer: 7430 nM

Question: What about the GI50 [8] of the same molecule?
Answer: 1240 nM

Question: What about the TGI [8] of the same molecule?
Answer: 2680 nM

Question: And the GI50 [9]?
Answer: 2760 nM

Question: And the TGI [9]?
Answer: 7120 nM

Question: What about the GI50 [10] of the same molecule?
Answer: 1430 nM

Question: And the TGI [10]?
Answer: 3240 nM

Question: And the GI50 [11]?
Answer: 343 nM

Question: What about the TGI [11] of the same molecule?
Answer: 1670 nM

Question: What about the GI50 [12] of the same molecule?
Answer: 1690 nM

Question: What about the TGI [12] of the same molecule?
Answer: 3110 nM

Question: What about the GI50 [13] of the same molecule?
Answer: 2020 nM

Question: What about the TGI [13] of the same molecule?
Answer: 4350 nM

Question: And the GI50 [14]?
Answer: 568 nM

Question: What about the TGI [14] of the same molecule?
Answer: 3840 nM

Question: What about the GI50 [15] of the same molecule?
Answer: 1730 nM

Question: And the TGI [15]?
Answer: 3260 nM

Question: And the GI50 [16]?
Answer: 45.5 nM

Question: What about the TGI [16] of the same molecule?
Answer: 245 nM

Question: What about the GI50 [17] of the same molecule?
Answer: 2660 nM

Question: And the TGI [17]?
Answer: > 24500 nM

Question: What about the GI50 [18] of the same molecule?
Answer: 1910 nM

Question: What about the TGI [18] of the same molecule?
Answer: 3970 nM

Question: What about the GI50 [19] of the same molecule?
Answer: 2370 nM

Question: What about the TGI [19] of the same molecule?
Answer: 5250 nM

Question: And the GI50 [20]?
Answer: 2450 nM

Question: What about the TGI [20] of the same molecule?
Answer: 8020 nM

Question: And the GI50 [21]?
Answer: 1720 nM

Question: What about the TGI [21] of the same molecule?
Answer: 3420 nM

Question: And the GI50 [22]?
Answer: 1400 nM

Question: What about the TGI [22] of the same molecule?
Answer: 2740 nM

Question: What about the GI50 [23] of the same molecule?
Answer: 1830 nM

Question: And the TGI [23]?
Answer: 3380 nM

Question: What about the GI50 [24] of the same molecule?
Answer: 2110 nM

Question: What about the TGI [24] of the same molecule?
Answer: 5510 nM

Question: What about the GI50 [25] of the same molecule?
Answer: 642 nM

Question: What about the TGI [25] of the same molecule?
Answer: 2170 nM

Question: And the GI50 [26]?
Answer: 1640 nM

Question: And the TGI [26]?
Answer: 3170 nM

Question: And the GI50 [27]?
Answer: 124 nM

Question: And the GI50 [28]?
Answer: 1620 nM

Question: And the TGI [28]?
Answer: 3130 nM

Question: What about the GI50 [29] of the same molecule?
Answer: 1740 nM

From PubChem BioAssay (NCI)
